“And” between values parts separate entries of the source, which are not always exact repeats. Equal entries are not always repeated.
These compounds were tested against Glycogen synthase kinase-3 alpha (Homo sapiens, UniProt P49840) (assay: TR-FRET Assay).
Procedure: (§1) The assay was performed in a white, 384 well, low volume, flat bottom plate (Grenier). […] The kinase activity was quenched with 2 μL of 250 mM EDTA. A 10 μL volume of 40 nM Strepavidin-d2, 2 nM Tb2+-pSer641 antibody in TR-FRET Detection Buffer (Invitrogen) was then added.

Chain of Glycogen synthase kinase-3 alpha (P49840 whole entry): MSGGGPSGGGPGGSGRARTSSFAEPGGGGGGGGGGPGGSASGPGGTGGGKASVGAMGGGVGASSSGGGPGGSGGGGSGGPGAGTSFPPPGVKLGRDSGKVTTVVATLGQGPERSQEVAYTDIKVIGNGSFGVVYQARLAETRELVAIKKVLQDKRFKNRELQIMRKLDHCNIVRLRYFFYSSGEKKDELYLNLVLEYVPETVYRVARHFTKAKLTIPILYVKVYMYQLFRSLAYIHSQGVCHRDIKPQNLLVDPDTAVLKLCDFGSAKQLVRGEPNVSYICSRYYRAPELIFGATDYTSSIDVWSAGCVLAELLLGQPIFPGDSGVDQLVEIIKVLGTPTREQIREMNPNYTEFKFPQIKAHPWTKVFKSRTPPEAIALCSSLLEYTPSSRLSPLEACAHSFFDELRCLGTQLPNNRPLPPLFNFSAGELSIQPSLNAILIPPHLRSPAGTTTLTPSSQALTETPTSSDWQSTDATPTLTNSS

Compound | IC50
CC(C)(C)CC1=C2C(N=N1)NC1=C(C(=O)CC(C)(C)C1)C21COC1 (centres undefined) [US20250313563, Compound 90709] | 1790 nM and 13700 nM
CC(=O)N1CC2(C1)C1=C(CC(C)(C)CC1=O)NC1N=NC(CC(C)(C)C)=C12 (centres undefined) [US20250313563, Compound 90991] | 3010 nM and 17500 nM
CC[C@@]1(c2cccc(-c3ccnc(C)c3)c2)C2=CN=NC2NC2=C1C(=O)CC(C)(C)C2 (some centres undefined) [US20250313563, Compound 865170] | 1000 to 5000 nM
CC[C@@]1(c2cccc(-c3ccncc3)c2)C2=CN=NC2NC2=C1C(=O)C[C@@H](C)C2 (some centres undefined) [US20250313563, Compound 874315] | 1000 to 5000 nM
CC[C@@]1(c2cccc(-c3ccnc(OC)c3)c2)C2=CN=NC2NC2=C1C(=O)CC(C)(C)C2 (some centres undefined) [US20250313563, Compound 911989] | 1000 to 5000 nM
CC[C@@]1(c2cccc(N3CCc4ccncc43)c2)C2=CN=NC2NC2=C1C(=O)CC(C)(C)C2 (some centres undefined) [US20250313563, Compound 912004] | 1000 to 5000 nM
CC[C@@]1(c2cccc(-c3cn(C)nc3C)c2)C2=C(CC(C)(C)CC2=O)NC2N=NC(C)=C21 (some centres undefined) [US20250313563, Compound 913034] | 1000 to 5000 nM
CC[C@]1(c2cccc(-c3ccn(C)n3)c2)C2=C(CC(C)(C)CC2=O)NC2N=NC(C)=C21 (some centres undefined) [US20250313563, Compound 913039] | 1000 to 5000 nM
CC[C@@]1(c2cccc(S(=O)(=O)CC3CC3)c2)C2=CN=NC2NC2=C1C(=O)CC(C)(C)C2 (some centres undefined) [US20250313563, Compound 917151] | 1000 to 5000 nM
CC[C@@]1(c2cccc(N3C[C@@H](C)[C@@H](C)C3)c2)C2=CN=NC2NC2=C1C(=O)CC(C)(C)C2 (some centres undefined) [US20250313563, Compound 918327] | 1000 to 5000 nM
CC[C@]1(c2cccc(-c3cc(C)ncc3F)c2)C2=CN=NC2NC2=C1C(=O)CC(C)(C)C2 (some centres undefined) [US20250313563, Compound 927339] | 1000 to 5000 nM
CC[C@]1(c2cccc(S(=O)(=O)C3CCCCC3)c2)C2=CN=NC2NC2=C1C(=O)CC(C)(C)C2 (some centres undefined) [US20250313563, Compound 943547] | 1000 to 5000 nM
Cn1ccc(S(=O)(=O)N2CCC3(CC2)C2=C(N=NC2)NC2=C3C(=O)NC(C)(C)C2)n1 [US20250313563, Compound 943961] | < 100 nM and 100 to 1000 nM
CC[C@@]1(c2cccc(C(F)(F)F)c2)C2=CN=NC2NC2=C1C(=O)N[C@H](c1ccccc1)C2 (some centres undefined) [US20250313563, Compound 945363] | 1000 to 5000 nM
CC[C@@]1(c2cccc(C(F)(F)F)c2)C2=CN=NC2NC2=C1C(=O)NC[C@@H]2C (some centres undefined) [US20250313563, Compound 945384] | 1000 to 5000 nM
CCc1cccc(N(C)c2cccc([C@]3(CC)C4=CN=NC4NC4=C3C(=O)CC(C)(C)C4)c2)n1 (some centres undefined) [US20250313563, Compound 945726] | 1000 to 5000 nM
CC[C@]1(c2cccc(C(F)(F)F)c2)C2=CN=NC2NC2=C1C(=O)N[C@@H](C(C)(C)C)C2 (some centres undefined) [US20250313563, Compound 945921] | 1000 to 5000 nM
CC[C@@]1(c2cccc(Nc3ncccn3)c2)C2=CN=NC2NC2=C1C(=O)CC(C)(C)C2 (some centres undefined) [US20250313563, Compound 945958] | 1000 to 5000 nM
CC[C@]1(c2cccc(-c3ccnn3C(C)C)c2)C2=CN=NC2NC2=C1C(=O)CC(C)(C)C2 (some centres undefined) [US20250313563, Compound 946092] | 1000 to 5000 nM
CC[C@]1(c2cccc(-c3ccnc(C)c3)c2)C2=CN=NC2NC2=C1C(=O)CC(C)(C)[C@@H]2F (some centres undefined) [US20250313563, Compound 946101] | 1000 to 5000 nM
CC[C@@]1(c2cccc(-c3ccnc(C)c3)c2)C2=CN=NC2NC2=C1C(=O)CC(C)(C)[C@@H]2F (some centres undefined) [US20250313563, Compound 946102] | 1000 to 5000 nM
CC[C@]1(c2cccc(-c3ccnc(C)c3)c2)C2=CN=NC2NC2=C1C(=O)C[C@]1(CCOC1)C2 (some centres undefined) [US20250313563, Compound 947412] | 1000 to 5000 nM
CC[C@]1(c2cccc(-c3cnn4c3CCCC4)c2)C2=CN=NC2NC2=C1C(=O)NC(C)(C)C2 (some centres undefined) [US20250313563, Compound 947415] | 1000 to 5000 nM
CC[C@]1(c2cccc(-c3ccnn3C)c2)C2=CN=NC2NC2=C1C(=O)N[C@@](C)(COC)C2 (some centres undefined) [US20250313563, Compound 947907] | 1000 to 5000 nM
CC[C@@]1(c2cccc(-c3ccnc(C)c3)c2)C2=CN=NC2NC2=C1C(=O)N[C@]1(CCOC1)C2 (some centres undefined) [US20250313563, Compound 948148] | 1000 to 5000 nM
CC[C@]1(c2cccc(-c3ccnn3C)c2)C2=CN=NC2NC2=C1C(=O)N[C@@]1(CCCOC1)C2 (some centres undefined) [US20250313563, Compound 948366] | 1000 to 5000 nM

Further lines, results first:

IC50 | Compound
100 to 1000 nM | CC(C)(C)CC1N=NC2=C1[C@](C)(c1cccc(S(C)(=O)=O)c1)C1=C(CC(C)(C)CC1=O)N2 (some centres undefined) [US20250313563, Compound 114687]
1000 to 5000 nM | Cc1ccc(S(C)(=O)=O)cc1[C@]1(C)C2=C(CC(C)(C)CC2=O)NC2=C1C(CC(C)(C)C)N=N2 (some centres undefined) [US20250313563, Compound 126397]
100 to 1000 nM | CC[C@@]1(c2cccc(Br)c2)C2=CN=NC2NC2=C1C(=O)CC(C)(C)C2 (some centres undefined) [US20250313563, Compound 790734]
1000 to 5000 nM | CC[C@@]1(c2cccc(Cl)c2)C2=C(CC(C)(C)CC2=O)NC2N=NC(C(F)(F)F)=C21 (some centres undefined) [US20250313563, Compound 801309]
1000 to 5000 nM | CC[C@@]1(c2cccc(OC(C)C)c2)C2=CN=NC2NC2=C1C(=O)CC(C)(C)C2 (some centres undefined) [US20250313563, Compound 811563]
100 to 1000 nM | CC[C@@]1(c2cccc(N3CCCC3)c2)C2=C(CC(C)(C)CC2=O)NC2N=NC(C(F)(F)F)=C21 (some centres undefined) [US20250313563, Compound 819575]
100 to 1000 nM | CC[C@@]1(c2cccc(C(F)F)c2)C2=CN=NC2NC2=C1C(=O)CC(C)(C)C2 (some centres undefined) [US20250313563, Compound 826716]
100 to 1000 nM | CC[C@@]1(c2cccc(N(C)c3ccncc3)c2)C2=CN=NC2NC2=C1C(=O)CC(C)(C)C2 (some centres undefined) [US20250313563, Compound 874261]
100 to 1000 nM | CC[C@@]1(c2cccc(N(C)c3cccnc3)c2)C2=CN=NC2NC2=C1C(=O)CC(C)(C)C2 (some centres undefined) [US20250313563, Compound 874299]
100 to 1000 nM | CC[C@@]1(c2cccc(-n3ccnc3)c2)C2=CN=NC2NC2=C1C(=O)CC(C)(C)C2 (some centres undefined) [US20250313563, Compound 874533]
100 to 1000 nM | CC[C@@]1(c2cccc(N(C)c3cccnn3)c2)C2=CN=NC2NC2=C1C(=O)CC(C)(C)C2 (some centres undefined) [US20250313563, Compound 911976]
< 100 nM | CC[C@@]1(c2cccc(N(C)c3ncccn3)c2)C2=CN=NC2NC2=C1C(=O)CC(C)(C)C2 (some centres undefined) [US20250313563, Compound 911981]
100 to 1000 nM | CC[C@@]1(c2cccc(-c3c(C)nn(C)c3C)c2)C2=CN=NC2NC2=C1C(=O)CC(C)(C)C2 (some centres undefined) [US20250313563, Compound 911991]
100 to 1000 nM | CC[C@]1(c2cccc([C@H]3CCOC(C)(C)C3)c2)C2=CN=NC2NC2=C1C(=O)CC(C)(C)C2 (some centres undefined) [US20250313563, Compound 912088]
100 to 1000 nM | CC[C@@]1(c2cccc([C@H]3CCOC(C)(C)C3)c2)C2=CN=NC2NC2=C1C(=O)CC(C)(C)C2 (some centres undefined) [US20250313563, Compound 912090]
100 to 1000 nM | CC[C@]1(c2cccc(-c3ccnc(C(F)(F)F)c3)c2)C2=C(CC(C)(C)CC2=O)NC2N=NC(C)=C21 (some centres undefined) [US20250313563, Compound 913049]

IC50 | Compound
100 to 1000 nM | CC[C@]1(c2cccc(-c3ccnc(C)c3)c2)C2=C(CC(C)(C)CC2=O)NC2N=NC(C)=C21 (some centres undefined) [US20250313563, Compound 913051]
< 100 nM | COC(=O)C1CCC2(CC1)C1=C(N=NC1)NC1=C2C(=O)CC(C)(C)C1 (centres undefined) [US20250313563, Compound 918277]
100 to 1000 nM | CC[C@@]1(c2cccc(-c3ccnc(C)c3C)c2)C2=CN=NC2NC2=C1C(=O)CC(C)(C)C2 (some centres undefined) [US20250313563, Compound 943517]
< 100 nM | CC[C@@]1(c2cccc(-c3ccncc3C(F)(F)F)c2)C2=CN=NC2NC2=C1C(=O)CC(C)(C)C2 (some centres undefined) [US20250313563, Compound 943913]
100 to 1000 nM | CC[C@@]1(c2cccc(-c3cnn4c3CCCC4)c2)C2=CN=NC2NC2=C1C(=O)CC(C)(C)C2 (some centres undefined) [US20250313563, Compound 945544]
100 to 1000 nM | CC[C@@]1(c2cccc(Oc3cncnc3)c2)C2=CN=NC2NC2=C1C(=O)CC(C)(C)C2 (some centres undefined) [US20250313563, Compound 945939]
100 to 1000 nM | CC[C@]1(c2cccc(S(=O)(=O)C3COC3)c2)C2=CN=NC2NC2=C1C(=O)CC(C)(C)C2 (some centres undefined) [US20250313563, Compound 946003]
100 to 1000 nM | CC[C@]1(c2cccc(S(=O)(=O)C3CC3)c2)C2=CN=NC2NC2=C1C(=O)NC(C)(C)C2 (some centres undefined) [US20250313563, Compound 946004]
100 to 1000 nM | CCn1nccc1-c1cccc([C@@]2(CC)C3=CN=NC3NC3=C2C(=O)CC(C)(C)C3)c1 (some centres undefined) [US20250313563, Compound 946090]
100 to 1000 nM | CC[C@]1(c2cccc(-c3ccnn3CCC(C)C)c2)C2=CN=NC2NC2=C1C(=O)CC(C)(C)C2 (some centres undefined) [US20250313563, Compound 946096]
100 to 1000 nM | CC[C@]1(c2cccc(Oc3ncccn3)c2)C2=CN=NC2NC2=C1C(=O)CC(C)(C)C2 (some centres undefined) [US20250313563, Compound 947818]
100 to 1000 nM | CC[C@]1(c2cccc(-c3ccnn3C)c2)C2=CN=NC2NC2=C1C(=O)N[C@]1(CCOC1)C2 (some centres undefined) [US20250313563, Compound 948014]
100 to 1000 nM | CC[C@]1(c2cccc(-c3ccncc3C)c2)C2=CN=NC2NC2=C1C(=O)NC1(CCCC1)C2 (some centres undefined) [US20250313563, Compound 948021]
100 to 1000 nM | CC[C@]1(c2cccc(-c3ccncc3C)c2)C2=CN=NC2NC2=C1C(=O)NC(C)(COC)C2 (some centres undefined) [US20250313563, Compound 948127]
100 to 1000 nM | CC[C@]1(c2cccc(-c3c(F)cncc3OC)c2)C2=CN=NC2NC2=C1C(=O)NC(C)(C)C2 (some centres undefined) [US20250313563, Compound 948145]

What follows are compounds tested against Glycogen synthase kinase-3 beta (Homo sapiens, UniProt P49841) (assay: TR-FRET Assay).
Procedure: as §1

Chain of Glycogen synthase kinase-3 beta (P49841 whole entry): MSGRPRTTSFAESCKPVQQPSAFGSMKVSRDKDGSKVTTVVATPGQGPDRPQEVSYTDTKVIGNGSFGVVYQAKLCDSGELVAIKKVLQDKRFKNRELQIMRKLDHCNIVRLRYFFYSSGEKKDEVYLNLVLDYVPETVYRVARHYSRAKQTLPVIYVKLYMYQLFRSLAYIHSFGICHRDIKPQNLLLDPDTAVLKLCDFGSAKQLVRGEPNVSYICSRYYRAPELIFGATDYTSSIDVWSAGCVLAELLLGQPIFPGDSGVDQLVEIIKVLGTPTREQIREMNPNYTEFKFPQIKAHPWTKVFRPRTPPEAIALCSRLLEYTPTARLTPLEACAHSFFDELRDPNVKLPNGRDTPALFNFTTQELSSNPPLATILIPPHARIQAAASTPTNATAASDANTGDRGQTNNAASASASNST

Compound | IC50 [nM]
CC[C@@]1(c2cccc(C(F)F)c2)C2=C(CC(C)(C)NC2=O)NC2N=NC(C(F)(F)F)=C21 (some centres undefined) [US20250313563, Compound 951948] | 100 to 1000
CC[C@@]1(c2cccc(-c3cnn(CC#N)c3)c2)C2=CN=NC2NC2=C1C(=O)NC(C)(C)C2 (some centres undefined) [US20250313563, Compound 952210] | 100 to 1000

From BindingDB's records for patent US20250313563 (The Broad Institute, 2025)
